Data reported in PubChem BioAssay (NCI).
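Compound exposure: 48 hours, 5 concentrations, 96-well plates. GI50 marks 50% less growth. TGI: concentration producing complete growth inhibition.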

What was measured:
Test in all cases: NCI tumour cell line growth inhibition, 48 h
786-0 renal = system: 786-0 renal
A498 renal = system: A498 renal
A549 NSCLC = system: A549 NSCLC
ACHN renal = system: ACHN renal
BT-549 breast = system: BT-549 breast
CAKI-1 renal = system: CAKI-1 renal
CCRF-CEM leukemia = system: CCRF-CEM leukemia
COLO 205 colon = system: COLO 205 colon
DU-145 prostate = system: DU-145 prostate
EKVX NSCLC = system: EKVX NSCLC
HCC-2998 colon = system: HCC-2998 colon
HCT-116 colon = system: HCT-116 colon
HCT-15 colon = system: HCT-15 colon
HL-60(TB) leukemia = system: HL-60(TB) leukemia
HOP-62 NSCLC = system: HOP-62 NSCLC
HOP-92 NSCLC = system: HOP-92 NSCLC
HS 578T breast = system: HS 578T breast
HT29 colon = system: HT29 colon
IGROV1 ovarian = system: IGROV1 ovarian
K-562 leukemia = system: K-562 leukemia
KM12 colon = system: KM12 colon
LOX IMVI melanoma = system: LOX IMVI melanoma
M14 melanoma = system: M14 melanoma
MALME-3M melanoma = system: MALME-3M melanoma
MCF7 breast = system: MCF7 breast
MDA-MB-231 breast = system: MDA-MB-231 breast
MDA-MB-435 = system: MDA-MB-435
MDA-MB-468 breast = system: MDA-MB-468 breast
MOLT-4 leukemia = system: MOLT-4 leukemia
NCI-H226 lung = system: NCI-H226 lung
NCI-H23 lung = system: NCI-H23 lung
NCI-H460 lung = system: NCI-H460 lung
NCI-H522 lung = system: NCI-H522 lung
NCI/ADR-RES ovarian = system: NCI/ADR-RES ovarian
OVCAR-3 ovarian = system: OVCAR-3 ovarian
OVCAR-4 ovarian = system: OVCAR-4 ovarian
OVCAR-5 ovarian = system: OVCAR-5 ovarian
OVCAR-8 ovarian = system: OVCAR-8 ovarian
PC-3 prostate = system: PC-3 prostate
RPMI-8226 leukemia = system: RPMI-8226 leukemia
RXF 393 renal = system: RXF 393 renal
SF-268 CNS = system: SF-268 CNS
SF-295 CNS = system: SF-295 CNS
SF-539 CNS = system: SF-539 CNS
SK-MEL-2 melanoma = system: SK-MEL-2 melanoma
SK-MEL-28 melanoma = system: SK-MEL-28 melanoma
SK-MEL-5 melanoma = system: SK-MEL-5 melanoma
SK-OV-3 ovarian = system: SK-OV-3 ovarian
SN12C renal = system: SN12C renal
SNB-19 CNS = system: SNB-19 CNS
SNB-75 CNS = system: SNB-75 CNS
SR leukemia = system: SR leukemia
SW-620 colon = system: SW-620 colon
T-47D breast = system: T-47D breast
TK-10 renal = system: TK-10 renal
U251 CNS = system: U251 CNS
UACC-257 melanoma = system: UACC-257 melanoma
UACC-62 melanoma = system: UACC-62 melanoma
UO-31 renal = system: UO-31 renal

COc1ccc(S(=O)(=O)Nc2ccc(-c3ccc4c(c3)NC(=O)/C4=C\c3ccc[nH]3)cc2)cc1OC
GI50 (786-0 renal): 3.43 µM | TGI (786-0 renal): 15.2 µM | GI50 (A498 renal): 14.3 µM | TGI (A498 renal): 28.5 µM | GI50 (A549 NSCLC): 2.18 µM | TGI (A549 NSCLC): 14.2 µM | GI50 (ACHN renal): 6.99 µM | TGI (ACHN renal): 20.2 µM | GI50 (BT-549 breast): 2.23 µM | TGI (BT-549 breast): 9.35 µM | GI50 (CAKI-1 renal): 6.18 µM | TGI (CAKI-1 renal): 19.9 µM | GI50 (CCRF-CEM leukemia): 16.1 µM | TGI (CCRF-CEM leukemia): > 100 µM | GI50 (COLO 205 colon): 10.2 µM | TGI (COLO 205 colon): 83.3 µM | GI50 (DU-145 prostate): 4.88 µM | TGI (DU-145 prostate): 20.8 µM | GI50 (EKVX NSCLC): 0.0835 µM | TGI (EKVX NSCLC): 17.5 µM | GI50 (HCC-2998 colon): 5.74 µM | TGI (HCC-2998 colon): > 100 µM | GI50 (HCT-116 colon): 4.72 µM | TGI (HCT-116 colon): 88.5 µM | GI50 (HCT-15 colon): 13.7 µM | TGI (HCT-15 colon): > 100 µM | GI50 (HL-60(TB) leukemia): 8.35 µM | TGI (HL-60(TB) leukemia): > 100 µM | GI50 (HOP-62 NSCLC): 10.2 µM | TGI (HOP-62 NSCLC): 23.3 µM | GI50 (HOP-92 NSCLC): 3.43 µM | TGI (HOP-92 NSCLC): 18.3 µM | GI50 (HS 578T breast): 4.6 µM | TGI (HS 578T breast): 61.8 µM | GI50 (HT29 colon): 7.61 µM | TGI (HT29 colon): > 100 µM | GI50 (IGROV1 ovarian): 12.9 µM | TGI (IGROV1 ovarian): 33 µM | GI50 (K-562 leukemia): 11.9 µM | TGI (K-562 leukemia): > 100 µM | GI50 (KM12 colon): 9.03 µM | TGI (KM12 colon): > 100 µM | GI50 (LOX IMVI melanoma): 6.39 µM | TGI (LOX IMVI melanoma): 27.6 µM | GI50 (M14 melanoma): 2.4 µM | TGI (M14 melanoma): 17.4 µM | GI50 (MALME-3M melanoma): 4.26 µM | TGI (MALME-3M melanoma): 15.9 µM | GI50 (MCF7 breast): 0.0476 µM | TGI (MCF7 breast): 11.1 µM | GI50 (MDA-MB-231 breast): 3.82 µM | TGI (MDA-MB-231 breast): 15.3 µM | GI50 (MDA-MB-435): 6.35 µM | TGI (MDA-MB-435): 38.9 µM | GI50 (MDA-MB-468 breast): 0.0309 µM | TGI (MDA-MB-468 breast): 0.113 µM | GI50 (MOLT-4 leukemia): 14.8 µM | TGI (MOLT-4 leukemia): > 100 µM | GI50 (NCI-H226 lung): 1.82 µM | TGI (NCI-H226 lung): 12.8 µM | GI50 (NCI-H23 lung): 0.194 µM | TGI (NCI-H23 lung): 14.7 µM | GI50 (NCI-H460 lung): 0.343 µM | TGI (NCI-H460 lung): 11.3 µM | GI50 (NCI-H522 lung): 3.25 µM | TGI (NCI-H522 lung): 23 µM | GI50 (NCI/ADR-RES ovarian): 14 µM | TGI (NCI/ADR-RES ovarian): > 100 µM | GI50 (OVCAR-3 ovarian): 8.4 µM | TGI (OVCAR-3 ovarian): 27.5 µM | GI50 (OVCAR-4 ovarian): 1.76 µM | TGI (OVCAR-4 ovarian): 11.8 µM | GI50 (OVCAR-5 ovarian): 10.6 µM | TGI (OVCAR-5 ovarian): 23.8 µM | GI50 (OVCAR-8 ovarian): 11.2 µM | TGI (OVCAR-8 ovarian): 28.9 µM | GI50 (PC-3 prostate): 10.1 µM | TGI (PC-3 prostate): 41.3 µM | GI50 (RPMI-8226 leukemia): 8.33 µM | TGI (RPMI-8226 leukemia): > 100 µM | GI50 (RXF 393 renal): 1.4 µM | TGI (RXF 393 renal): 6.74 µM | GI50 (SF-268 CNS): 15.3 µM | TGI (SF-268 CNS): 55.2 µM | GI50 (SF-295 CNS): 3.12 µM | TGI (SF-295 CNS): 15.1 µM | GI50 (SF-539 CNS): 1.66 µM | TGI (SF-539 CNS): 11 µM | GI50 (SK-MEL-2 melanoma): 14.3 µM | TGI (SK-MEL-2 melanoma): 33.8 µM | GI50 (SK-MEL-28 melanoma): 0.886 µM | TGI (SK-MEL-28 melanoma): 7.07 µM | GI50 (SK-MEL-5 melanoma): 3.35 µM | TGI (SK-MEL-5 melanoma): 22.1 µM | GI50 (SK-OV-3 ovarian): 3.59 µM | TGI (SK-OV-3 ovarian): 15.1 µM | GI50 (SN12C renal): 12.4 µM | TGI (SN12C renal): 30.8 µM | GI50 (SNB-19 CNS): 12.6 µM | TGI (SNB-19 CNS): 26.3 µM | GI50 (SNB-75 CNS): 1.37 µM | TGI (SNB-75 CNS): 21.2 µM | GI50 (SR leukemia): 0.86 µM | TGI (SR leukemia): > 100 µM | GI50 (SW-620 colon): 8.53 µM | TGI (SW-620 colon): 71.7 µM | GI50 (T-47D breast): 0.0285 µM | TGI (T-47D breast): 1.27 µM | GI50 (TK-10 renal): 3.3 µM | TGI (TK-10 renal): 18.7 µM | GI50 (U251 CNS): 10.1 µM | TGI (U251 CNS): 23.2 µM | GI50 (UACC-257 melanoma): 0.691 µM | TGI (UACC-257 melanoma): 12.1 µM | GI50 (UACC-62 melanoma): 0.75 µM | TGI (UACC-62 melanoma): 8.59 µM | GI50 (UO-31 renal): 12.9 µM | TGI (UO-31 renal): 27.4 µM
